Key:
[1] = 298.15 K; for surface tension liquid-gas: Drop volume; for mass density: 101.33 kPa, Liquid
[2] = refractive index (Na D-line) (dimensionless); settings: 298.15 K; 101.33 kPa; Liquid; Standard Abbe refractometry
[3] = refractive index (Na D-line) (dimensionless); xn = mol fraction of the nth substance listed; settings: 298.15 K, 101 kPa, Liquid
[4] = xn = mol fraction of the nth substance listed; settings: 298.15 K; for surface tension liquid-gas: Drop volume; for mass density: 101 kPa, Liquid

Cc1cccc(C)c1 [1,3-dimethylbenzene]
Settings	mass density [kg/m3]	refractive index	surface tension liquid-gas [mN/m]
[1]	859.78	–	28.03
[2]	–	1.4945	–

Cc1cccc(C)c1 [1,3-dimethylbenzene] + CCCCCC
Settings	mass density [kg/m3]	refractive index	surface tension liquid-gas [mN/m]
[3], x2 = 0.0431	–	1.4891	–
[3], x2 = 0.083	–	1.484	–
[3], x2 = 0.1562	–	1.4748	–
[3], x2 = 0.2093	–	1.4682	–
[3], x2 = 0.2997	–	1.4569	–
[3], x2 = 0.3521	–	1.4502	–
[3], x2 = 0.4276	–	1.4409	–
[3], x2 = 0.5167	–	1.43	–
[3], x2 = 0.5798	–	1.4223	–
[3], x2 = 0.6769	–	1.4106	–
[3], x2 = 0.7318	–	1.404	–
[3], x2 = 0.8329	–	1.392	–
[3], x2 = 0.8836	–	1.386	–
[3], x2 = 0.9325	–	1.3803	–
[4], x2 = 0.0431	850.57	–	–
[4], x2 = 0.0522	–	–	27.13
[4], x2 = 0.0797	–	–	26.69
[4], x2 = 0.0825	842.28	–	–
[4], x2 = 0.1442	–	–	25.66
[4], x2 = 0.1572	826.64	–	–
[4], x2 = 0.2008	–	–	24.85
[4], x2 = 0.2093	815.69	–	–
[4], x2 = 0.2281	–	–	24.48
[4], x2 = 0.2575	805.59	–	–
[4], x2 = 0.2997	796.8	–	–
[4], x2 = 0.3075	–	–	23.5
[4], x2 = 0.3563	785.03	–	–
[4], x2 = 0.3603	–	–	22.91
[4], x2 = 0.4106	–	–	22.39
[4], x2 = 0.4174	–	–	22.33
[4], x2 = 0.4278	770.24	–	–
[4], x2 = 0.483	758.86	–	–
[4], x2 = 0.5086	–	–	21.5
[4], x2 = 0.5167	751.98	–	–
[4], x2 = 0.5677	–	–	21.01
[4], x2 = 0.5833	738.31	–	–
[4], x2 = 0.6294	728.97	–	–
[4], x2 = 0.6431	–	–	20.41
[4], x2 = 0.6769	719.32	–	–
[4], x2 = 0.6771	–	–	20.15
[4], x2 = 0.7318	708.21	–	–
[4], x2 = 0.7418	–	–	19.7
[4], x2 = 0.7668	–	–	19.54
[4], x2 = 0.7817	698.13	–	–
[4], x2 = 0.8329	687.89	–	–
[4], x2 = 0.8545	–	–	18.99
[4], x2 = 0.8802	–	–	18.83
[4], x2 = 0.8914	676.22	–	–
[4], x2 = 0.9446	665.65	–	–
[4], x2 = 0.96	–	–	18.29

CCCCCC [hexane]
Settings	mass density [kg/m3]	refractive index	surface tension liquid-gas [mN/m]
[1]	654.7	–	17.91
[2]	–	1.3723	–

CCCOC(=O)CC [propyl propanoate]
Settings	mass density [kg/m3]	refractive index	surface tension liquid-gas [mN/m]
[1]	875.53	–	24.1
[2]	–	1.3905	–

CCCOC(=O)CC [propyl propanoate] + Cc1cccc(C)c1
[3]
Settings	refractive index
x1 = 0.0448	1.4894
x1 = 0.1176	1.4814
x1 = 0.1702	1.4756
x1 = 0.2173	1.4704
x1 = 0.3134	1.4599
x1 = 0.3923	1.4515
x1 = 0.4461	1.4458
x1 = 0.4902	1.4412
x1 = 0.5421	1.4358
x1 = 0.5906	1.4308
x1 = 0.6442	1.4254
x1 = 0.7474	1.4151
x1 = 0.7982	1.4101
x1 = 0.8483	1.4052
x1 = 0.8942	1.4008
x1 = 0.9522	1.3952

Reference: the NIST ThermoML archive (doi:10.1021/je0504111)
